Entries after “also recorded” stand apart in the source; their conditions may differ. Where two headings read alike, the source gives them in different places.
Key:
rat adjuvant arthritis = assay: Effect on the Development of Adjuvant Arthritis; assay type: in vivo, Fischer male rats; conditions: oral; for inhibition in vivo at 100 mg/kg / inhibition in vivo at 50 mg/kg: Rattus norvegicus, 504 h, 21 days after adjuvant, mean ± standard error
Protocol: Fischer male rats (8 weeks old; body weight 120-180 g) were grouped so that the average of body weights among the groups were nearly the same. Then, 0.1 ml of complete adjuvant obtained by suspending Mycobacterium butyricum (Difco Laboratories) in paraffin oil in a concentration of 6 mg/ml was injected into the footpad of the right hind paw to induce adjuvant arthritis.
Each of the test compounds was dissolved or suspended in a 1% gum arabic solution, and administered orally once a day on six days a week over a period of three weeks starting from the day of the adjuvant injection. The group administered with a 1% gum arabic solution instead of the test compound was served for a control. The volumes of both hind paws were measured plethysmographically by displacement of water at various times after injection of the adjuvant, and the percent paw edema inhibition was calculated from the following equation. [formula] Eexp : the percent paw edema in rats treated with the test compound Econt : the mean of percent paw edema in rats of the control group
The percent paw edema was calculated from the following equation. [formula] Vpost : the paw volume after treatment with the adjuvant Vpre : the paw volume before treatment with the adjuvant

in vivo = conditions: mouse, oral, mice died within a week, probit method
Protocol: ddY male mice (body weight about 23 g) were fasted overnight, and the test compound dissolved or suspended in a 1% gum arabic solution administered orally. From the number of mice died within a week, the LD50 value was calculated by the probit method.

[1] = system: Delayed-Type Hypersensitivity (DTH), normal immune reaction; assay: Effect on Delayed-Type Hypersensitivity (DTH): normal immune reaction; assay type: in vivo, BALB/c male mice; conditions: for Footpad swelling inhibition / Footpad swelling: oral, normal immune reaction; for Footpad swelling: mean ± standard error
Protocol: BALB/c male mice (8 weeks old) were sensitized by injection into the tail vein with 0.2 ml of 5×10^6 /ml sheep red blood cells (SRBC). Three days after the sensitization, 0.05 ml of 8×10^9 /ml SRBC was injected into the footpad of the right hind paw for elicitation of DTH. Footpad thickness was measured immediately before and 24 hours after the elicitation with a dial thickness gauge. The level of DTH was expressed as footpad swelling (mm) at 24 hour. The inhibition (%) of footpad swelling was calculated from the following equation.
The test compound was dissolved or suspended in a 1% gum arabic solution, and administered orally once a day over a period of 7 days starting from four days before the sensitization. To a control group, a 1% gum arabic solution was administered instead of the test compound. [formula] Texp : the mean of the footpad swelling in mice treated with the test compound
Tcont : the mean of the footpad swelling in mice of the control group

[2] = system: Delayed-Type Hypersensitivity (DTH), enhanced immune reaction; assay: Effect on Delayed-Type Hypersensitivity (DTH): enhanced immune reaction; assay type: in vivo, BALB/c male mice; conditions: for Footpad swelling inhibition / Footpad swelling: oral, cyclophosphamide 75 mg/kg; for Footpad swelling: mean ± standard error
Protocol: Three days after the sensitization, 0.05 ml of 8×10^9 /ml SRBC was injected into the footpad of the right hind paw for elicitation of DTH. Twenty four hours later, footpad swelling (mm) was measured in the same way as in (A) above, and the inhibition (%) of footpad swelling was calculated from the following equation.
The test compound was dissolved or suspended in a 1% gum arabic solution, and administered orally once a day over a period of 7 days starting from four days before the sensitization (immediately after administration of cyclophosphamide). To a control group, a 1% gum arabic solution was administered instead of the test compound. The group, administered with physiological saline instead of cyclophosphamide and a 1% gum arabic solution instead of test compound respectively, was served for a normal group. [formula] Tcont : the mean of the footpad swelling in mice of the control group Texp : the mean of the footpad swelling in mice treated with the test compound
Tnor : the mean of the footpad swelling in mice of the normal group.

[3] = system: rat mustard-induced paw edema; assay: rat mustard-induced paw edema (subacute inflammation); assay type: in vivo; conditions: 100 mg/kg
[4] = system: rat carrageenin-induced paw edema; assay: rat carrageenin-induced paw edema (acute inflammation); assay type: in vivo; conditions: 100 mg/kg
[5] = 100 mg/kg, read-out: Paw edema inhibition, Non-treated paw
[6] = 100 mg/kg, read-out: Paw edema inhibition, Treated paw
[7] = 3 mg/kg, ** P < 0.01 vs control
[8] = 10 mg/kg, ** P < 0.01 vs control
[9] = 30 mg/kg, * P < 0.05, ** P < 0.01 vs control
[10] = 100 mg/kg, * P < 0.05 vs control

CC(=O)Oc1ccc2sc(-c3ccc(C)cc3)nc2c1 [A, 5-acetoxy-2-(4-methylphenyl)benzothiazole]
inhibition in vivo at 100 mg/kg (rat adjuvant arthritis; [5]): 4.5 ± 11.7%
inhibition in vivo at 100 mg/kg (rat adjuvant arthritis; [6]): 12.9 ± 4.4%

CC(=O)Oc1ccc2nc(-c3ccc(C)cc3)sc2c1 [B, 6-acetoxy-2-(4-methylphenyl)benzothiazole]
inhibition in vivo at 100 mg/kg (rat adjuvant arthritis; [5]): 4.4 ± 14.2%
inhibition in vivo at 100 mg/kg (rat adjuvant arthritis; [6]): -7.6 ± 8.8%

CC(=O)Oc1cccc2nc(-c3ccc(C)cc3)sc12 [C, 7-acetoxy-2-(4-methylphenyl)benzothiazole]
inhibition in vivo at 100 mg/kg (rat adjuvant arthritis; [5]): 8.9 ± 10.4%
inhibition in vivo at 100 mg/kg (rat adjuvant arthritis; [6]): 16.6 ± 4.1%

CC(=O)Oc1cccc2sc(-c3ccc(C)cc3)nc12 [Example 5, 4-Acetoxy-2-(4-methylphenyl)benzothiazole]
inhibition in vivo at 100 mg/kg (rat adjuvant arthritis; [5]): 32 ± 7.7%
inhibition in vivo at 100 mg/kg (rat adjuvant arthritis; [6]): 31.8 ± 3.9%
LD50 at 168 h (in vivo): > 3000 mg/kg
Footpad swelling inhibition ([1]; 1 mg/kg): 0.0%
Footpad swelling ([1]; 1 mg/kg): 59 ± 5 × 10^-2 mm
Footpad swelling inhibition ([1]; 3 mg/kg): -6.8%
Footpad swelling ([1]; 3 mg/kg): 63 ± 6 × 10^-2 mm
Footpad swelling inhibition ([1]; 10 mg/kg): 3.4%
Footpad swelling ([1]; 10 mg/kg): 57 ± 6 × 10^-2 mm
Footpad swelling inhibition ([1]; 30 mg/kg): -8.5%
Footpad swelling ([1]; 30 mg/kg): 64 ± 6 × 10^-2 mm
Footpad swelling inhibition ([1]; 100 mg/kg): 10.2%
Footpad swelling ([1]; 100 mg/kg): 53 ± 4 × 10^-2 mm
Footpad swelling inhibition ([2]; 1 mg/kg): 57.1%
Footpad swelling ([2]; 1 mg/kg, * P < 0.05 vs control): 37 ± 5 × 10^-2 mm
Footpad swelling inhibition ([2]; 3 mg/kg): 66.7%
Footpad swelling [2, 7]: 35 ± 1 × 10^-2 mm
Footpad swelling inhibition ([2]; 10 mg/kg): 85.7%
Footpad swelling [2, 8]: 31 ± 3 × 10^-2 mm
Footpad swelling inhibition ([2]; 30 mg/kg): 76.2%
Footpad swelling [2, 9]: 33 ± 2 × 10^-2 mm
Footpad swelling inhibition ([2]; 100 mg/kg): 57.1%
Footpad swelling [2, 10]: 37 ± 4 × 10^-2 mm

COc1ccc(-c2nc3c(OC(C)=O)cccc3s2)cc1 [Example 6, 4-Acetoxy-2-(4-methoxyphenyl)benzothiazole]
inhibition in vivo at 100 mg/kg (rat adjuvant arthritis; [5]): 27.4 ± 10.8%
inhibition in vivo at 100 mg/kg (rat adjuvant arthritis; [6]): 24.7 ± 3.7%
LD50 at 168 h (in vivo): > 3000 mg/kg

CC(=O)Oc1cccc2sc(-c3ccc(C(=O)O)cc3)nc12 [Example 7, 4-(4-Acetoxybenzothiazol-2-yl)benzoic acid]
inhibition in vivo at 100 mg/kg (rat adjuvant arthritis; [5]): 38.5 ± 6%
inhibition in vivo at 100 mg/kg (rat adjuvant arthritis; [6]): 29.9 ± 2.9%
LD50 at 168 h (in vivo): 2020 mg/kg

COC(=O)c1ccc(-c2nc3c(OC(C)=O)cccc3s2)cc1 [Example 8, Methyl 4-(4-acetoxybenzothiazol-2-yl)benzoate]
inhibition in vivo at 100 mg/kg (rat adjuvant arthritis; [5]): 28.6 ± 8.8%
inhibition in vivo at 100 mg/kg (rat adjuvant arthritis; [6]): 29.3 ± 3.6%
LD50 at 168 h (in vivo): > 3000 mg/kg

O=C([O-])c1ccccc1Nc1cc(Cl)ccc1C(=O)[O-].[Na+].[Na+] [Lobenzarit disodium, N-(2-carboxyphenyl)-4-chloroanthranilic acid disodium salt]
death during the test (rat adjuvant arthritis; 100 mg/kg, adjuvant arthritis rats, footnote of Table 1): Four animals out of 16
inhibition in vivo at 50 mg/kg (rat adjuvant arthritis; read-out: Paw edema inhibition, Non-treated paw): -9 ± 12%
inhibition in vivo at 50 mg/kg (rat adjuvant arthritis; read-out: Paw edema inhibition, Treated paw): 6.3 ± 5.3%
inhibition in vivo at 100 mg/kg (rat adjuvant arthritis; [5]): -1.7 ± 11.4%
inhibition in vivo at 100 mg/kg (rat adjuvant arthritis; [6]): 15.1 ± 6.6%
effect on rat mustard-induced paw edema [3]: no effect
effect on rat carrageenin-induced paw edema [4]: no effect
Footpad swelling inhibition ([1]; 1 mg/kg): 4.3%
Footpad swelling ([1]; 1 mg/kg): 67 ± 2 × 10^-2 mm
Footpad swelling inhibition ([1]; 3 mg/kg): 8.6%
Footpad swelling ([1]; 3 mg/kg): 64 ± 5 × 10^-2 mm
Footpad swelling inhibition ([1]; 10 mg/kg): -8.6%
Footpad swelling ([1]; 10 mg/kg): 76 ± 6 × 10^-2 mm
Footpad swelling inhibition ([1]; 30 mg/kg): 7.1%
Footpad swelling ([1]; 30 mg/kg): 65 ± 4 × 10^-2 mm
Footpad swelling inhibition ([1]; 100 mg/kg): 7.1%
Footpad swelling ([1]; 100 mg/kg): 65 ± 5 × 10^-2 mm
effect on DTH in a normal immune reaction (in words) ([1]; any doses, disodium salt): did not inhibit footpad swelling at any doses; also recorded: no effect on a normal immune reaction
Footpad swelling inhibition ([2]; 1 mg/kg): 20.0%
Footpad swelling ([2]; 1 mg/kg, * P < 0.05 vs control): 47 ± 3 × 10^-2 mm
Footpad swelling inhibition ([2]; 3 mg/kg): 40.0%
Footpad swelling [2, 7]: 43 ± 3 × 10^-2 mm
Footpad swelling inhibition ([2]; 10 mg/kg): -10.0%
Footpad swelling [2, 8]: 53 ± 3 × 10^-2 mm
Footpad swelling inhibition ([2]; 30 mg/kg): 50.0%
Footpad swelling [2, 9]: 41 ± 3 × 10^-2 mm
Footpad swelling inhibition ([2]; 100 mg/kg): 50.0%
Footpad swelling [2, 10]: 41 ± 3 × 10^-2 mm
effect on DTH in an enhanced immune reaction (in words) ([2]; any doses): suppresses an abnormally enhanced immune reaction
